Reference: US20060014644A1, “Phenylsulfonyl ureas, process for their preparation and their use as herbicides and plant growth regulators” (Hoechst Schering AgrEvo GmbH, priority 1999, published 2006)

Legend:
[1] = test system: harmful plants such as Sinapis alba, Echinochloa crus-galli, Lolium multiflorum, Chrysanthemum segetum, Setaria spp., Abutilon theophrasti, Amaranthus …; assay: Post-emergence effect on weeds (greenhouse pot test, visual scoring); assay type: in vivo, monocotyledonous and dicotyledonous weeds; conditions: three-leaf stage, application rate of 0.3 kg and less of active substance per hectare, scored visually after about 3 to 4 weeks by comparison with untreated controls
Procedure: 2. Post-Emergence Effect on Weeds
Seeds or rhizome pieces of monocotyledonous and dicotyledonous weeds were placed in sandy loam soil in plastic pots, covered with soil and grown in a greenhouse under good growth conditions. Three weeks after sowing, the test plants were treated at the three-leaf stage. The compounds according to the invention which were formulated as wettable powders or emulsion concentrates were sprayed, at various dosages, onto the green parts of the plants at an application rate of 600 to 800 l of water/ha (converted). After the test plants had remained in the greenhouse for about 3 to 4 weeks under ideal growth conditions, the effect of the preparations was scored visually by comparison with untreated controls. The agents according to the invention also have good herbicidal activity post-emergence against a broad spectrum of economically important Weed grasses and broad-loafed weeds.

[2] = test system: harmful plants such as Sinapis alba, Chrysanthemum segetum, Avena sativa, Stellaria media, Echinochloa crus-galli, Lolium multiflorum, Setaria spp., Abutilon …; assay: Pre-emergence effect on weeds (greenhouse pot test, visual scoring); assay type: in vivo, monocotyledonous and dicotyledonous weed plants; conditions: application rate of 0.3 kg and less of active substance per hectar, scored visually after 3 to 4 weeks by comparison with untreated controls
Description: 1. Pre-Emergence Effect on Weeds
Seeds or rhizome pieces of monocotyledonous and dicotyledonous weed plants were placed in sandy loam soil in cardboard pots and covered with soil. The compounds according to the invention which were formulated in the form of wettable powders or emulsion concentrates were then applied to the surface of the soil cover in the form of aqueous suspensions or emulsions at an application rate of 600 to 800 l of water/ha (converted), in various dosages.
After the treatment, the pots were placed in a greenhouse and kept under good growth conditions for the weeds. After the test plants had emerged, the damage to the plants or the negative effect on the emergence was scored visually after a test period of 3 to 4 weeks by comparison with untreated controls. As shown by the test results, compounds according to the invention have good herbicidal pre-emergence activity against a broad spectrum of weed grasses and broad-leafed weeds.

| Compound | herbicidal activity against harmful plants, post-emergence [1] | herbicidal activity against harmful plants, pre-emergence [2] |
| --- | --- | --- |
| COc1nc(NC(=O)NS(=O)(=O)c2cccc(N)c2C(=O)O)nc(OC)n1 [Example 1-9] | very good herbicidal activity | very good herbicidal activity |
| COC(=O)c1c(N)cccc1S(=O)(=O)NC(=O)Nc1nc(OC)cc(OC)n1 [Example 1-11] | very good herbicidal activity | very good herbicidal activity |
| COC(=O)c1c(N)cccc1S(=O)(=O)NC(=O)Nc1nc(C)nc(OC)n1 [Example 1-15] | very good herbicidal activity | very good herbicidal activity |
| COC(=O)c1c(N)cccc1S(=O)(=O)[N-]C(=O)Nc1nc(C)nc(OC)n1.[Na+] [Example 1-16] | very good herbicidal activity | very good herbicidal activity |
| COC(=O)c1c(N)cccc1S(=O)(=O)NC(=O)Nc1nc(C)cc(OC)n1 [Example 1-17] | very good herbicidal activity | very good herbicidal activity |
| COC(=O)c1c(N)cccc1S(=O)(=O)NC(=O)Nc1nc(Cl)cc(OC)n1 [Example 1-23] | very good herbicidal activity | very good herbicidal activity |
| COC(=O)c1c(N)cccc1S(=O)(=O)NC(=O)Nc1nc(OC)nc(OC)n1 [Example 1-25] | very good herbicidal activity | very good herbicidal activity |
| COC(=O)c1c(N)cccc1S(=O)(=O)[N-]C(=O)Nc1nc(OC)nc(OC)n1.[Na+] [Example 1-26] | very good herbicidal activity | very good herbicidal activity |
| COC(=O)c1c(N)cccc1S(=O)(=O)NC(=O)Nc1nc(OC(F)F)cc(OC(F)F)n1 [Example 1-41] | very good herbicidal activity | very good herbicidal activity |
| CCOC(=O)c1c(N)cccc1S(=O)(=O)NC(=O)Nc1nc(OC)cc(OC)n1 [Example 1-45] | very good herbicidal activity | very good herbicidal activity |
| CCOC(=O)c1c(N)cccc1S(=O)(=O)NC(=O)Nc1nc(C)nc(OC)n1 [Example 1-47] | very good herbicidal activity | very good herbicidal activity |
| CCOC(=O)c1c(N)cccc1S(=O)(=O)NC(=O)Nc1nc(Cl)cc(OC)n1 [Example 1-55] | very good herbicidal activity | very good herbicidal activity |
| CCOC(=O)c1c(N)cccc1S(=O)(=O)NC(=O)Nc1nc(OC)nc(OC)n1 [Example 1-57] | very good herbicidal activity | very good herbicidal activity |
| CNc1cccc(S(=O)(=O)NC(=O)Nc2nc(OC)cc(OC)n2)c1C(=O)OC [Example 1-105] | very good herbicidal activity | very good herbicidal activity |
| CCNc1cccc(S(=O)(=O)NC(=O)Nc2nc(OC)cc(OC)n2)c1C(=O)OC [Example 1-129] | very good herbicidal activity | very good herbicidal activity |
| CCNc1cccc(S(=O)(=O)NC(=O)Nc2nc(C)nc(OC)n2)c1C(=O)OC [Example 1-131] | very good herbicidal activity | very good herbicidal activity |
| CCNc1cccc(S(=O)(=O)NC(=O)Nc2nc(OC)nc(OC)n2)c1C(=O)OC [Example 1-135] | very good herbicidal activity | very good herbicidal activity |
| COC(=O)c1c(NC(C)C)cccc1S(=O)(=O)NC(=O)Nc1nc(OC)cc(OC)n1 [Example 1-153] | very good herbicidal activity | very good herbicidal activity |

| Compound | herbicidal activity against harmful plants, post-emergence [1] | herbicidal activity against harmful plants, pre-emergence [2] |
| --- | --- | --- |
| COC(=O)c1c(NC(C)C)cccc1S(=O)(=O)[N-]C(=O)Nc1nc(OC)cc(OC)n1.[Na+] [Example 1-154] | very good herbicidal activity | very good herbicidal activity |
| COC(=O)c1c(NC(C)C)cccc1S(=O)(=O)NC(=O)Nc1nc(C)nc(OC)n1 [Example 1-155] | very good herbicidal activity | very good herbicidal activity |
| COC(=O)c1c(NC(C)C)cccc1S(=O)(=O)NC(=O)Nc1nc(OC)nc(OC)n1 [Example 1-159] | very good herbicidal activity | very good herbicidal activity |
| COC(=O)c1c(NCC(C)C)cccc1S(=O)(=O)NC(=O)Nc1nc(OC)cc(OC)n1 [Example 1-177] | very good herbicidal activity | very good herbicidal activity |
| COC(=O)c1c(NCC(C)C)cccc1S(=O)(=O)NC(=O)Nc1nc(C)nc(OC)n1 [Example 1-179] | very good herbicidal activity | very good herbicidal activity |
| CCOC(=O)c1c(NCC(C)C)cccc1S(=O)(=O)NC(=O)Nc1nc(Cl)cc(OC)n1 [Example 1-189] | very good herbicidal activity | very good herbicidal activity |
| COC(=O)c1c(NCCCC(F)(F)F)cccc1S(=O)(=O)NC(=O)Nc1nc(OC)cc(OC)n1 [Example 1-241] | very good herbicidal activity | very good herbicidal activity |
| COC(=O)c1c(NCCCC(F)(F)F)cccc1S(=O)(=O)NC(=O)Nc1nc(C)nc(OC)n1 [Example 1-243] | very good herbicidal activity | very good herbicidal activity |
| COC(=O)c1c(NCCCC(F)(F)F)cccc1S(=O)(=O)NC(=O)Nc1nc(OC)nc(OC)n1 [Example 1-247] | very good herbicidal activity | very good herbicidal activity |
| CCC(C)Nc1cccc(S(=O)(=O)NC(=O)Nc2nc(OC)cc(OC)n2)c1C(=O)OC (stereo not drawn) [Example 1-265] | very good herbicidal activity | very good herbicidal activity |
| CCC(C)Nc1cccc(S(=O)(=O)NC(=O)Nc2nc(C)nc(OC)n2)c1C(=O)OC (stereo not drawn) [Example 1-267] | very good herbicidal activity | very good herbicidal activity |
| CCC(C)Nc1cccc(S(=O)(=O)NC(=O)Nc2nc(OC)nc(OC)n2)c1C(=O)OC (stereo not drawn) [Example 1-271] | very good herbicidal activity | very good herbicidal activity |
| COC(=O)c1c(NC2CC2)cccc1S(=O)(=O)NC(=O)Nc1nc(OC)cc(OC)n1 [Example 1-353] | very good herbicidal activity | very good herbicidal activity |
| COC(=O)c1c(NC2CC2)cccc1S(=O)(=O)NC(=O)Nc1nc(C)nc(OC)n1 [Example 1-355] | very good herbicidal activity | very good herbicidal activity |
| COC(=O)c1c(NC2CC2)cccc1S(=O)(=O)NC(=O)Nc1nc(OC)nc(OC)n1 [Example 1-359] | very good herbicidal activity | very good herbicidal activity |
| COC(=O)c1c(NCc2ccccc2)cccc1S(=O)(=O)NC(=O)Nc1nc(OC)cc(OC)n1 [Example 1-381] | very good herbicidal activity | very good herbicidal activity |
| COC(=O)c1c(NCc2ccccc2)cccc1S(=O)(=O)NC(=O)Nc1nc(C)nc(OC)n1 [Example 1-383] | very good herbicidal activity | very good herbicidal activity |
| COC(=O)c1c(NCc2ccccc2)cccc1S(=O)(=O)NC(=O)Nc1nc(OC)nc(OC)n1 [Example 1-387] | very good herbicidal activity | very good herbicidal activity |
